From ChEMBL document CHEMBL5661943, “ASAP - In vitro antiviral effect” (2024)
Where “and” joins values, the source holds several entries; their conditions need not be identical. Identical values can stand only once.

Legend:
dengue virus type 2 [1] = assay: Functional assay to measure dose dependent changes in antiviral-drug inhibitory efficacy against Dengue virus type 2 New Guinea C in Vero E6 miRFP670 cells (cotreated with P-gp inhibitor, CP100356). Cells are treated with antiviral candidates that are serially diluted, following infection, cells are fixed. EC50 is reported via analysis of fluorescence intensity using high-content imager. The …; assay type: organism-based, Chlorocebus sabaeus, Vero C1008; conditions: for EC90: P-gp concentration 500 nM, P-gp inhibitor CP100356
Zika virus [2] = assay: EC50 is reported via analysis of immunofluorescence staining. The assay has been performed by Icahn School of Medicine at Mount Sinai.; assay type: functional, organism-based, Chlorocebus sabaeus, VeroE6/TMPRSS2
Zika virus [3] = assay: Functional CPE-based assay to measure dose dependent changes in antiviral-drug inhibitory efficacy against Zika virus MR766 in Vero E6 miRFP670 cells (cotreated with P-gp inhibitor, CP100356). Cells are treated with antiviral candidates that are serially diluted. EC50 is reported via analysis of MTS assay as a readout of CPE. The assay has been performed by KU Leuven.; assay type: organism-based, Chlorocebus sabaeus, Vero C1008; conditions: for EC90: P-gp concentration 500 nM, P-gp inhibitor CP100356
dengue virus type 2 [4] = assay: Functional immunofluorescence assay to measure dose dependent changes in antiviral-drug inhibitory efficacy against Dengue virus type 2 Thailand/16681/84 in Vero E6/TMPRSS2 cells (cotreated with P-gp inhibitor, Elacridar). Cells are treated with antiviral candidates that are serially diluted, following infection, cells are fixed. EC50 is reported via analysis of immunofluorescence staining. The assay has been performed by Icahn School of Medicine at Mount Sinai.; assay type: organism-based, Chlorocebus sabaeus, VeroE6/TMPRSS2; conditions: Dengue virus; for EC90: P-gp concentration 2 uM, P-gp inhibitor Elacidar

Q: With O=C(Nc1ccc2c(c1)CNC2)c1cc(F)cc2[nH]nnc12 as the compound, how does the EC50 (dengue virus type 2 [1]; Dengue virus, Vero C1008) read?
A: The EC50 was greater than 50 µM.

Q: What about the EC90 (dengue virus type 2 [1]; Dengue virus, Vero C1008, Maximum measured 103.909 %, Minimum measured 99.111 %) of the same compound?
A: Its EC90 is greater than 50 µM.

Q: And the EC50 (Zika virus [2]; Zika virus, VeroE6/TMPRSS2)?
A: The EC50 was greater than 50 µM.

Q: What about the EC90 (Zika virus [2]; Zika virus, VeroE6/TMPRSS2, Maximum measured 143.994 %, Minimum measured 34.535 %, P-gp concentration 2 uM, P-gp inhibitor Elacidar) of the same compound?
A: Its EC90 is greater than 50 µM.

Q: What about the EC50 (Zika virus [3]; Zika virus, Vero C1008) of the same compound?
A: The EC50 was greater than 50 µM.

Q: What about the EC90 (Zika virus [3]; Zika virus, Vero C1008, Maximum measured -0.357 %, Minimum measured -5.629 %) of the same compound?
A: Its EC90 is greater than 50 µM.

Q: What about the EC50 (dengue virus type 2 [4]; VeroE6/TMPRSS2) of the same compound?
A: The EC50 was greater than 50 µM.

Q: And the EC90 (dengue virus type 2 [4]; VeroE6/TMPRSS2, Maximum measured 175.922 %, Minimum measured 81.786 %)?
A: Its EC90 is greater than 50 µM.

Q: And the EC90 (dengue virus type 2 [4]; VeroE6/TMPRSS2, Baseline response 0 %, Hill slope 0.135, Maximum measured 108.442 %, Maximum response 100 %, Minimum measured 80.171 %, R squared 0.018)?
A: Its EC90 is greater than 50 µM.

Q: Which EC50 (dengue virus type 2 [1]; Dengue virus, Vero C1008) does the source give for O=C1Cc2c(cc(Br)cc2C(=O)Nc2ccc3c(c2)CNC3)N1 here?
A: The EC50 was greater than 50 µM.

Q: And the EC90 (dengue virus type 2 [1]; Dengue virus, Vero C1008, Maximum measured 133.969 %, Minimum measured 97.1 %)?
A: Its EC90 is greater than 50 µM.

Q: And the EC90 (Zika virus [2]; Baseline response 0 %, EC90 CI (lower) 0.005 uM, EC90 CI (upper) 0.605 uM, Hill slope -0.732, Maximum measured 85.329 %, Maximum response 60 %, Minimum measured 3.582 %, P-gp concentration 2 uM, R squared 0.614, P-gp inhibitor Elacidar)?
A: Its EC90 is 21.3 µM.

Q: What about the EC90 (Zika virus [2]; Baseline response 0 %, Hill slope -0.686, Maximum measured 100.363 %, Maximum response 100 %, Minimum measured 5.777 %, P-gp concentration 2 uM, R squared 0.778, P-gp inhibitor Elacidar) of the same compound?
A: Its EC90 is greater than 50 µM.

Q: And the EC50 (Zika virus [2]; Zika virus, VeroE6/TMPRSS2)?
A: The EC50 was 2.09 µM.

Q: What about the EC50 (Zika virus [2]; veroe6/tmprss2) of the same compound?
A: Its EC50 is 1.06 µM.

Q: And the EC50 (Zika virus [3]; Zika virus, Vero C1008)?
A: Its EC50 is 7.52 µM.

Q: What about the EC90 (Zika virus [3]; Zika virus, Vero C1008, Baseline response 0 %, EC90 CI (lower) 4.323 uM, EC90 CI (upper) 45.141 uM, Hill slope 3.545, Maximum measured 169.819 %, Maximum response 100 %, Minimum measured -0.685 %, R squared 0.785) of the same compound?
A: Its EC90 is 14 µM.

Q: What about the EC50 (dengue virus type 2 [4]; VeroE6/TMPRSS2) of the same compound?
A: The EC50 was greater than 50 µM.

Q: And the EC90 (dengue virus type 2 [4]; VeroE6/TMPRSS2, Maximum measured […], Minimum measured 159.027 %)?
A: Its EC90 is greater than 50 µM.

Q: Which EC50 (dengue virus type 2 [1]; Dengue virus, Vero C1008) does the source give for Cn1cc(CNC(=O)[C@H](Nc2ccc3c(c2)CNC3)c2cc(Cl)cc(C3CC3)c2)cn1 here?
A: Its EC50 is greater than 50 µM.

Q: And the EC90 (dengue virus type 2 [1]; Dengue virus, Vero C1008, Maximum measured 110.921 %, Minimum measured 103.415 %)?
A: Its EC90 is greater than 50 µM.

Q: What about the EC90 (Zika virus [2]; Zika virus, VeroE6/TMPRSS2, Maximum measured 136.439 %, Minimum measured 82.812 %, P-gp concentration 2 uM, P-gp inhibitor Elacidar) of the same compound?
A: Its EC90 is greater than 5.56 µM.

Q: What about the EC90 (Zika virus [2]; Zika virus, VeroE6/TMPRSS2, Maximum measured 172.39 %, Minimum measured 65.114 %, P-gp concentration 2 uM, P-gp inhibitor Elacidar) of the same compound?
A: Its EC90 is greater than 50 µM.

Q: And the EC50 (Zika virus [2]; veroe6/tmprss2)?
A: The EC50 was greater than 50 µM.

Q: And the EC50 (Zika virus [3]; Zika virus, Vero C1008)?
A: Its EC50 is greater than 50 µM.

Q: And the EC90 (Zika virus [3]; Zika virus, Vero C1008, Maximum measured -1.973 %, Minimum measured -8.89 %)?
A: Its EC90 is greater than 50 µM.

Q: What about the EC50 (dengue virus type 2 [4]; VeroE6/TMPRSS2) of the same compound?
A: Its EC50 is greater than 50 µM.

Q: What about the EC90 (dengue virus type 2 [4]; VeroE6/TMPRSS2, Maximum measured 219.34 %, Minimum measured 69.596 %) of the same compound?
A: The EC90 was greater than 50 µM.

Q: Which results are given for Cc1c(C(=O)Nc2cc(-c3cccnc3)ccn2)cc(C2CC2)n1C?
A: EC90 (dengue virus type 2 [1]; Baseline response 0 %, Hill slope 0.498, Maximum measured 89.901 %, Maximum response 100 %, Minimum measured 65.385 %, R squared 0.493): > 6.25 µM; EC90 (dengue virus type 2 [1]; Baseline response 0 %, Hill slope 0.771, Maximum measured 124.592 %, Maximum response 100 %, Minimum measured 47.777 %, R squared 0.6): < 0.391 µM; EC50 (dengue virus type 2 [1]; vero c1008): 0.83 µM and > 6.25 µM; EC50 (Zika virus [2]; Zika virus, VeroE6/TMPRSS2): 14.5 µM; EC90 (Zika virus [2]; Zika virus, VeroE6/TMPRSS2): 32.7 µM; EC90 (Zika virus [3]; Baseline response 0 %, Hill slope 10.672, Maximum measured 18.054 %, Maximum response 100 %, Minimum measured -2.868 %, R squared 0.771): > 50 µM; EC50 (Zika virus [3]; Zika virus, Vero C1008): > 50 µM; EC90 (Zika virus [3]; Zika virus, Vero C1008, Baseline response 0 %, Hill slope 1.591, Maximum measured 7.654 %, Maximum response 100 %, Minimum measured -2.289 %, R squared 0.158): > 50 µM; EC50 (dengue virus type 2 [4]; VeroE6/TMPRSS2): 46 µM; EC90 (dengue virus type 2 [4]; VeroE6/TMPRSS2, Baseline response 0 %, Hill slope -10.528, Maximum measured 161.281 %, Maximum response 100 %, Minimum measured 29.52 %, R squared 0.091): > 50 µM

Q: Which EC50 (dengue virus type 2 [1]; Dengue virus, Vero C1008) does the source give for Cc1cc(C(=O)Nc2ccc3c(c2)CNC3)c2cn[nH]c2c1 here?
A: The EC50 was greater than 50 µM.

Q: And the EC90 (dengue virus type 2 [1]; Dengue virus, Vero C1008, Maximum measured 131.325 %, Minimum measured 92.066 %)?
A: The EC90 was greater than 50 µM.

Q: What about the EC90 (Zika virus [2]; Baseline response 0 %, Hill slope -2.011, Maximum measured 89.225 %, Maximum response 60 %, Minimum measured 14.739 %, P-gp concentration 2 uM, R squared 0.55, P-gp inhibitor Elacidar) of the same compound?
A: Its EC90 is greater than 50 µM.

Q: And the EC90 (Zika virus [2]; Zika virus, VeroE6/TMPRSS2, Baseline response 0 %, Hill slope -0.435, Maximum measured 146.607 %, Maximum response 100 %, Minimum measured 37.409 %, P-gp concentration 2 uM, R squared 0.47, P-gp inhibitor Elacidar)?
A: The EC90 was greater than 50 µM.

Q: What about the EC50 (Zika virus [2]; veroe6/tmprss2) of the same compound?
A: Its EC50 is 4.92 µM and 30 µM.

Q: What about the EC50 (Zika virus [3]; Zika virus, Vero C1008) of the same compound?
A: Its EC50 is 7.79 µM.

Q: What about the EC90 (Zika virus [3]; Zika virus, Vero C1008, Baseline response 0 %, EC90 CI (lower) 4.895 uM, EC90 CI (upper) 50.446 uM, Hill slope 3.132, Maximum measured 172.887 %, Maximum response 100 %, Minimum measured 3.006 %, R squared 0.777) of the same compound?
A: Its EC90 is 15.7 µM.

Q: What about the EC50 (dengue virus type 2 [4]; VeroE6/TMPRSS2) of the same compound?
A: The EC50 was greater than 16.7 µM.

Q: And the EC90 (dengue virus type 2 [4]; VeroE6/TMPRSS2, Baseline response 0 %, Hill slope -0.131, Maximum measured 111.871 %, Maximum response 100 %, Minimum measured 74.867 %, R squared 0.056)?
A: The EC90 was greater than 16.7 µM.
